Assay results published in patent US6270389A, “Method for forming an electron-emitting device using a metal-containing composition” (priority 1995, dated 2001).

Columns and labels:
[1] = Thermogravimetric analysis (TG) in the air; format: physicochemical; conditions: for Decomp. Start.: Table 1
[2] = Electron-emitting characteristics of device measured with measurement evaluation apparatus; conditions: Table 1
Source text: FIG. 4 is a schematic block diagram of an arrangement comprising a vacuum chamber that can be used as a measuring system for determining the performance of an electron-emitting device of the type under consideration.
Referring to FIG. 4, those components that are similar to or same as those of FIGS. 1A and 1B are denoted by the same reference symbols. The measuring system includes a vacuum chamber 45 and a vacuum pump 46. An electron-emitting device is placed in the vacuum chamber 45. The device comprises a substrate 1, a pair of device electrodes 2 and 3, an electroconductive thin film 4 and an electron-emitting region 5. Otherwise, the measuring system has a power source 41 for applying a device voltage Vf to the device, an ammeter 40 for metering the device current If running through the thin film 4 between the device electrodes 2 and 3, an anode 44 for capturing the emission current Ie produced by electrons emitted from the electron-emitting region of the device, a high voltage source 43 for applying a voltage to the anode 44 of the measuring system and another ammeter 42 for metering the emission current Ie produced by electrons emitted from the electron-emitting region 5 of the device. For determining the performance of the electron-emitting device, a voltage between 1 and 10 KV may be applied to the anode, which is spaced apart from the electron emitting device by distance H which is between 2 and 8 mm.
The electron-emitting characteristics of the electron-emitting device formed as described above were evaluated by using the measurement evaluation apparatus in FIG. 4. Note that, in this example, the distance between an anode and the electron-emitting device was set to be 4 mm, and the potential of the anode was set to be 1 kV. The degree of vacuum in the vacuum apparatus in measurement of the electron-emitting characteristics was 10^-8 torr.
The measurement evaluation apparatus described above was used, and a device voltage was applied across the electrodes 2 and 3 of the electron-emittingdevice. When a device current If and an emission current Ie flowing at this time were measured, current-voltage characteristics shown in FIG. 5 were obtained. In this device, the emission current Ie began to increase from a device voltage of about 6.3 V, and the device current If became 1.9 mA at the device voltage of 14 V. At this time, the emission current Ie of 0.7 μA was obtained.
The electron-emitting characteristics of the device manufactured as described above were measured. FIG. 4 is a schematic view showing the arrangement of a measurement evaluation apparatus. Reference numerals in FIG. 4 follow the reference numerals in the above examples. Note that, in this example, the distance between an anode and the electron-emitting device was set to be 4 mm, the potential of the anode was set to be 1 KV, and the degree of vacuum in a vacuum apparatus in measurement of the electron-emitting characteristics was set to be 10^-6 torr.
The measurement evaluation apparatus described above was used, and a device voltage was applied across the electrodes 2 and 3 of the electron-emittingdevice. When a device current If and an emission current Ie flowing at this time were measured, current-voltage characteristics shown in FIG. 5 were obtained. In the device in this example, the emission current Ie begun to sharply increase from a device voltage of about 8 V, the device current If and the emission current Ie respectively became 2.3 mA and 1.2 μA at the device voltage of 16 V, and electron-emitting efficiency .eta.=Ie/If (%) was 0.05%.
Note that, in this example, the distance between an anode and the electron-emitting device was set to be 4 mm, the potential of the anode was set to be 1 KV, and the degree of vacuum in a vacuum apparatus in measurement of the electron-emitting characteristics was set to be 10^-7 torr. […]

[3] = water
[4] = X-ray diffraction
[5] = scanning type differential thermal analysis in the air

| Compound | Decomp. Start. [1] [°C] | Ie [2] [mA] | Ie/If [2] [%] | If [2] [mA] | Solubility [3] [Pdwt %] | temperature at which decomposition ended ([1]; TG in the air) [°C] | further results |
| --- | --- | --- | --- | --- | --- | --- | --- |
| CC(=O)[O-].CC(=O)[O-].NCCCO.NCCCO.NCCCO.NCCCO.[Pd+2] [Ex. 19] | 173 | 1.1 | 0.041 | 2.7 |  |  |  |
| CC(=O)[O-].CC(=O)[O-].NCCCCO.NCCCCO.NCCCCO.NCCCCO.[Pd+2] [Ex. 20] | 186 |  | 0.052 | 2.3 | 10.5 |  |  |
| CC(=O)[O-].CC(=O)[O-].CNCCO.CNCCO.[Pd+2] [Ex. 22] | 155 | 1.3 | 0.045 | 2.9 | 16.0 |  |  |
| CC(=O)[O-].CC(=O)[O-].CCNCCO.CCNCCO.[Pd+2] [Ex. 23] | 153 | 1.1 | 0.042 | 2.6 | 8.4 |  |  |
| CC(=O)[O-].CC(=O)[O-].CCCNCCO.CCCNCCO.[Pd+2] [Ex. 24] | 154 | 1.0 | 0.038 | 2.6 | 4.0 |  |  |
| CC(=O)[O-].CC(=O)[O-].CC(C)NCCO.CC(C)NCCO.[Pd+2] [Ex. 25] | 155 | 1.1 | 0.039 | 2.8 | 3.7 |  |  |
| CC(=O)[O-].CC(=O)[O-].CC(C)(C)NCCO.CC(C)(C)NCCO.[Pd+2] [Ex. 26] | 166 | 1.0 | 0.040 | 2.5 | 0.7 |  |  |
| CC(=O)[O-].CC(=O)[O-].NCCCO.NCCCO.[Ni+2] [NAMP, nickel acetate-bis(3-amino-propanol)] |  |  |  |  |  | 393 |  |
| CC(=O)[O-].CC(=O)[O-].CC(O)CN.CC(O)CN.[Ni+2] (centres unmarked) [NAMiP, nickel acetate-bis(1-amino-2-propanol)] |  |  |  |  |  | 406 |  |
| CC(=O)[O-].CC(=O)[O-].CNCCO.CNCCO.[Ni+2] [NANME, nickel acetate-bis(N-methylethanolamine)] |  |  |  |  |  | 379 |  |
| NCCO.NCCO.NCCO.O.O.O=C[O-].O=C[O-].[Ni+2] [NFME, nickel formate-tris(ethanolamine)-2-hydrate] |  |  |  |  |  | 403 |  |
| CC(=O)[O-].CC(=O)[O-].NCCO.NCCO.NCCO.NCCO.[Pd+2] [PA-ME, palladium acetate-monoethanolamine complex] |  |  |  |  |  | 310 | decomposition start temperature ([1]; TG in the air): 100 °C; sublimation properties ([1]; TG in the air): no sublimation properties; residue weight at 350° C., in words ([1]; TG in the air, 350° C.): equal to a theoretical weight; crystallinity of dried thin film [4]: non-crystallized; decomposition temperature [5]: 272 °C |
| nickel acetate-bis(N-butylethanolamine) [NABE] |  |  |  |  |  | 395 |  |
| palladium acetate bis(dipropylamine) [reference compound] |  |  |  |  |  |  | palladium lost in thermal decomposition ([1]; TG in the atmosphere): 29%; weight reduction end temperature ([1]; TG in the atmosphere): 250 °C; weight reduction start temperature ([1]; TG in the atmosphere): 122 °C; residue weight at 350° C. relative to theoretical weight ([1]; TG in the atmosphere, 350° C.): 71% |
| palladium acetate-bis(N,N-dibutylethanolamine) [PADBE] |  |  |  |  |  | 253 |  |
| palladium acetate-di(N-butylethanolamine) [PABE] |  |  |  |  |  | 245 |  |
| palladium acetate-diethanolamine complex [PA-DE] |  |  |  |  |  | 305 | decomposition start temperature ([1]; TG in the air): 100 °C; sublimation properties ([1]; TG in the air): no sublimation properties |
